Measured values: patent publication US20160206688A1, “METHODS FOR TREATING BACTEREMIA AND OSTEOMYELITIS USING ORITAVANCIN” (THE MEDICINES COMPANY, priority 2013, published 2016)
Converted amounts (≈) assume the structure as drawn.

How the values were obtained:
MDR SA = assay: Microdilution MIC against MDR SA by specimen source; format: cell-based, S. aureus
Procedure: 456 clinical, single-patient, non-consecutive, MDR SA isolates from the known specimen sources collected in 2011-2012 were analyzed. MDR was defined as resistant to ≧3 of the following: erythromycin, clindamycin, gentamicin, levofloxacin, and trimethoprim/sulfamethoxazole. 382 were MRSA and 74 were MSSA. MICs were determined by microdilution testing in accordance with CLSI M7 and M100 guidelines. Although other comparator drugs were tested, this analysis focuses on the activities of ORI, VAN, DAP, and LZD.

S. agalactiae = assay: Broth microdilution MIC, US isolates 2011-2012, blood vs non-blood; format: cell-based
Procedure: (§1) 527 E. faecalis, 176 E. faecium, and 790 BHS (335 S. pyogenes and 455 S. agalactiae) clinical, single patient, non-consecutive isolates were collected in 2011-2012 from 46 sites geographically distributed across the United States. The MICs were determined by broth microdilution testing performed in accordance with CLSI M7 and M100 guidelines. From the resulting database, this analysis focused on the activities of ORI, vancomycin (VAN), daptomycin (DAP), and linezolid (LZD) according to specimen source.

S. pyogenes = assay: as above; format: cell-based
Procedure: as §1

E. faecium = assay: as above; format: cell-based
Procedure: as §1

E. faecalis [1] = assay: as above; format: cell-based
Procedure: as §1

[2] = system: exponentially-growing S. aureus; details: within 15 minutes to 2 hours; MSSA, MRSA, and VRSA; cited from earlier work
E. faecalis [3] = assay: Broth microdilution MIC, European bacteraemia isolates 2010-2012; format: cell-based, Enterococcus faecalis
Procedure: A total of 2,904 clinical strains responsible for documented bacteremia among unique hospitalized patients in 38 hospitals in 11 European Union countries. Israel, Russia, Turkey and Ukraine were included in this study (2010-2012). Isolates were submitted to a central monitoring laboratory (JMI Laboratories, North Liberty. Iowa. USA), following previously established protocols. Bacterial species identification was performed by using an automated system (Vitek®2; bioMèrieux, Hazelwood, Mo., USA) or conventional biochemical algorithms, as required.
Isolates were tested for susceptibility by broth microdilution methods following the Clinical and Laboratory Standards Institute (CLSI; M07-A9, 2012) document. Susceptibility testing was performed in cation-adjusted Mueller-Hinton broth (CA-MHB) using dry-form panels manufactured by Thermo Fisher Scientific, formerly TREK Diagnostics Systems/Sensititre (Cleveland. Ohio, USA). These panels provide results equivalent to the CLSI-approved broth microdilution method supplemented with 0.002% polysorbate-80.
Quality assurance was performed by concurrent testing of CLSI-recommended (M100-S23, 2013) strains: E. faecalis ATCC 29212 and S. aureus ATCC 29213. Interpretation of comparator MIC results was in accordance with published CLSI (M100-S23) and European Committee on Antimicrobial Susceptibility Testing (EUCAST, 2013) criteria.

[4] = system: vancomycin-resistant enterococcal bacteremia; assay: Blood culture follow-up of compassionate use subject treated with oritavancin; format: in vivo, human
Procedure: In response to a compassionate use request, oritavancin was administered to a subject having bacteremia.
The demographics of the subject included the following: […]; […]; […]; weight—190 lb; height—70 inches. The subject's medical history included the following: CAD s/p CABG 8/08 (SVG to OM1, SVG to PDA); severe AS s/p bioprosthetic AVR 8/08; lumbar discectomy and fusion February 2011, hardware removed Jan. 11, 2013; PVD S/p bilateral CEA 2010; CKD s/p renal artery stenting December 2011, Baseline Cr approx 3.0 s; HTN; CHF; HLD; mild pulmonary fibrosis; BPH; GERD; arthritis.
The subject was diagnosed with: 1) vancomycin-resistant enterococcal bacteremia with intolerance of other antibiotics; and 2) possible spinal osteomyelitis.
Treatment as of Feb. 8, 2013: oritavancin (1200 mg IV, Q2D×3 times, then QW×5 times).
Last blood culture was Feb. 4, 2013 (negative). Attending physician will take blood sample for culture Feb. 11, 2013 and weekly thereafter.

[5] = E. faecalis (445), at ≦0.008 mg/L
[6] = Enterococcus faecalis, read-out: cumulative % inhibited at MIC

## CN[C@H](CC(C)C)C(=O)N[C@H]1C(=O)N[C@@H](CC(N)=O)C(=O)N[C@H]2C(=O)N[C@H]3C(=O)N[C@H](C(=O)N[C@H](C(=O)O)c4cc(O)cc(O)c4-c4cc3ccc4O)[C@H](O[C@H]3C[C@](C)(N)[C@@H](O)[C@H](C)O3)c3ccc(c(Cl)c3)Oc3cc2cc(c3O[C@@H]2O[C@H](CO)[C@@H](O)[C@H](O)[C@H]2O[C@H]2C[C@](C)(NCc3ccc(-c4ccc(Cl)cc4)cc3)[C@@H](O)[C@H](C)O2)Oc2ccc(cc2Cl)[C@H]1O [Oritavancin, N-(4-(4-chlorophenyl)benzyl)A82846B]
MDR SA; Blood, n = 108
  MIC50: 0.03 µg/mL (≈ 0.0167 µM)
  MIC90: 0.12 µg/mL (≈ 0.0669 µM)
  Mode (MIC): 0.03 µg/mL
MDR SA; Blood, n = 108, in µg/mL
  Range (MIC): 0.015-0.25
MDR SA; Respiratory, N = 157
  MIC50: 0.03 µg/mL (≈ 0.0167 µM)
  MIC90: 0.06 µg/mL (≈ 0.0335 µM)
  Mode (MIC): 0.03 µg/mL
MDR SA; Respiratory, N = 157, in µg/mL
  Range (MIC): 0.008-0.25
MDR SA; Skin/Wound, N = 191
  MIC50: 0.03 µg/mL (≈ 0.0167 µM)
  MIC90: 0.06 µg/mL (≈ 0.0335 µM)
  Mode (MIC): 0.03 µg/mL
  Range (MIC): ≦0.002-0.25
S. agalactiae; Blood, N 100
  MIC90: 0.25 µg/mL (≈ 0.139 µM)
S. agalactiae; Non-Blood, N 355
  MIC90: 0.25 µg/mL (≈ 0.139 µM)
S. pyogenes; Blood, N 53
  MIC90: 0.25 µg/mL (≈ 0.139 µM)
S. pyogenes; Non-Blood, N 282
  MIC90: 0.25 µg/mL (≈ 0.139 µM)
E. faecium; Blood, N 84
  MIC90: 0.12 µg/mL (≈ 0.0669 µM)
E. faecium; Non-Blood, N 92
  MIC90: 0.12 µg/mL (≈ 0.0669 µM)
E. faecalis [1]; Blood, N 116
  MIC90: 0.06 µg/mL (≈ 0.0335 µM)
E. faecalis [1]; Non-Blood, N 411
  MIC90: 0.06 µg/mL (≈ 0.0335 µM)
[2]
  reduction (bactericidal activity): ≥ 3 log
E. faecalis [3]; E. faecalis (445), at 0.015 mg/L
  Number inhibited at MIC: 204
E. faecalis [3]; E. faecalis (445), at 0.03 mg/L
  Number inhibited at MIC: 89
E. faecalis [3]; E. faecalis (445), at 0.06 mg/L
  Number inhibited at MIC: 30
E. faecalis [3]; E. faecalis (445), at 0.12 mg/L
  Number inhibited at MIC: 13
E. faecalis [3]; E. faecalis (445), at 0.25 mg/L
  Number inhibited at MIC: 4
E. faecalis [3]; E. faecalis (445), at 0.5 mg/L
  Number inhibited at MIC: 1
E. faecalis [3]; [5]
  Number inhibited at MIC: 104
  cumulative % inhibited at MIC: 23.4%
E. faecalis [3]; Enterococcus faecalis
  MIC50: 0.015 µg/mL (≈ 0.00837 µM)
  MIC90: 0.06 µg/mL (≈ 0.0335 µM)
E. faecalis [3]; Enterococcus faecalis, read-out: MIC values
  MIC: 0.12 to 0.5 µg/mL (≈ 0.0669 to 0.279 µM)
E. faecalis [3]; [6]
  inhibition at 0.015 µg/mL: 69.2%
  inhibition at 0.03 µg/mL: 89.2%
  inhibition at 0.06 µg/mL: 96%
  inhibition at 0.12 µg/mL: 98.9%
  inhibition at 0.25 µg/mL: 99.8%
  inhibition at 0.5 µg/mL: 100%
E. faecalis [3]; Table 1, E. faecalis (445)
  MIC 50%: 0.015 µg/mL (≈ 0.00837 µM)
  MIC 90%: 0.06 µg/mL (≈ 0.0335 µM)
E. faecalis [3]; Table 2, E. faecalis (445), includes four VanA-phenotype strains
  MIC Range: ≦0.008-0.5 mg/L
E. faecalis [3]; all E. faecalis, including resistant subsets
  concentration inhibiting all strains: ≤ 0.5 mg/L
[4]; Feb. 11, 2013 sample, after two 1200 mg IV doses
  blood culture: negative
[4]; samples taken Feb. 19, 2013, culture duration is 5 days
  blood culture: so far negative
